The source of these data is US7842324B2 (Senomyx, Inc., priority 2005, dated 2010).

pEC50: −log10 of the molar value. Where two headings read alike, the source gives them in different places.

In the experiment the target is T1, hT1R2/hT1R3 sweet receptor expressed in HEK293 cell line (Homo sapiens, UniProt Q7RTX0+Q8TE23).
T1 construct: expressed in transfected cells; host or cells: HEK293 derivative stably expressing Gα15 and hT1R2/hT1R3, clone S-9
T1 sequence (Q8TE23 20-839): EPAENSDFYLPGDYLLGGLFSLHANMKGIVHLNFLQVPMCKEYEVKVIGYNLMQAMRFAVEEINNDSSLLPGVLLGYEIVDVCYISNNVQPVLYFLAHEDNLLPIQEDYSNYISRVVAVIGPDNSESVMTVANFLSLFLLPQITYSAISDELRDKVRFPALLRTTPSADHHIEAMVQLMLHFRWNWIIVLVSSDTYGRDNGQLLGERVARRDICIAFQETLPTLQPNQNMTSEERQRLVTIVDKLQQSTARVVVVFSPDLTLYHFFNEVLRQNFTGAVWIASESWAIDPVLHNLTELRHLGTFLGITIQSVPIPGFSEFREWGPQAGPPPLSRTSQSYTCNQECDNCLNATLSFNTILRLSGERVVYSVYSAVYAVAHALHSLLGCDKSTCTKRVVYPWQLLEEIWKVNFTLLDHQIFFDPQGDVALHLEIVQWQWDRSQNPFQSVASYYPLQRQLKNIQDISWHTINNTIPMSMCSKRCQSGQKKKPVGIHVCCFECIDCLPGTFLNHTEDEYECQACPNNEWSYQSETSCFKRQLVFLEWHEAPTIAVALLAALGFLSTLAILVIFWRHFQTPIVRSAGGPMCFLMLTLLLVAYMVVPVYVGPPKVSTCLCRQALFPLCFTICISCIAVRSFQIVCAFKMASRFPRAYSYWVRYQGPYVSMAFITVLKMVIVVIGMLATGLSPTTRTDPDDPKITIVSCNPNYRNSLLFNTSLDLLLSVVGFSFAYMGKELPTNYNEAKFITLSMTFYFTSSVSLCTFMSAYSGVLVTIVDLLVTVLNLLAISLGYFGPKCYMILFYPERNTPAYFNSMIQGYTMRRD
T1 sequence (Q7RTX0 21-852): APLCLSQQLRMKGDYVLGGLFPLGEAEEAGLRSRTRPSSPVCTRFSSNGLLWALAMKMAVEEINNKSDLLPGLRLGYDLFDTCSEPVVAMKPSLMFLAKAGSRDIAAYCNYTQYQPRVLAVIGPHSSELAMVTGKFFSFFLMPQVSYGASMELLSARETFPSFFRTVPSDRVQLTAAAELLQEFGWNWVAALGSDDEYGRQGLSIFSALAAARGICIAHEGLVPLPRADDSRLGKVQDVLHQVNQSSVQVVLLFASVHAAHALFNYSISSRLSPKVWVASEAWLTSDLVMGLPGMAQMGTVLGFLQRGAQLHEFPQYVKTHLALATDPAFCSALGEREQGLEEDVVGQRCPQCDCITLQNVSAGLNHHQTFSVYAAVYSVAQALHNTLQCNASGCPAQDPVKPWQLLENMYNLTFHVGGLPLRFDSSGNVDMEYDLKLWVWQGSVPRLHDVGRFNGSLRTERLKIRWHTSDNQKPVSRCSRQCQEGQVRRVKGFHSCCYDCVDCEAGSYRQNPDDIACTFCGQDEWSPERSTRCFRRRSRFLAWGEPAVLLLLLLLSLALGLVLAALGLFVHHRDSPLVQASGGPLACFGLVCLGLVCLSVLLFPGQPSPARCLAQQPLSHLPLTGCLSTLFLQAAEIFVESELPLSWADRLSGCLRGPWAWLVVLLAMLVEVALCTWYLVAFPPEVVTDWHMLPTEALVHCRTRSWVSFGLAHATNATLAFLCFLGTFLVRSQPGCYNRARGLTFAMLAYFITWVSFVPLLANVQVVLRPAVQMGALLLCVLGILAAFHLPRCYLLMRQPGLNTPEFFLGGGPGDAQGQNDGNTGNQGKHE
The experiment is described as follows: In vitro hT1R2/hT1R3-HEK293 taste receptor activation assay (FLIPR). In kind it is cell-based. The method, then: An HEK293 cell line derivative (Chandrashekar et al., Cell (2000) 100:703-711) that stably expresses Gα15 and hT1R2/hT1R3 (Li et al., Proc Natl Acad Sci USA (2002) 99:4692-4696), see also PCT Publication No. WO 03/001876 A2) was used to identify compounds with sweet taste enhancing properties.
Compounds covered in this document were initially selected based on their activity on the hT1R2/hT1R3-HEK293-Gα15 cell line (Li et al. vide supra). Activity was determined using an automated fluorometric imaging assay on a FLIPR instrument ([…], Molecular Devices, Sunnyvale, Calif.) (designated FLIPR assay). Cells from one clone (designated S-9 cells) were seeded into 384-well plates (at approximately 50,000 cells per well) in a medium containing DMEM Low Glucose (Invitrogen, Carlsbad, Calif.), 10% dialyzed fetal bovine serum (Invitrogen, Carlsbad, Calif.), 100 Units/ml Penicillin G, and 100 μg/ml Streptomycin (Invitrogen, Carlsbad, Calif.) (Li et al. vide supra) see also PCT Publication No. WO 03/001876 A2). S-9 cells were grown for 24 hours at 37° C. S-9 cells were then loaded with the calcium dye Fluo-3AM (Molecular Probes, Eugene, Oreg.), 4 μM in a phosphate buffered saline (D-PBS) (Invitrogen, Carlsbad, Calif.), for 1 hour at room temperature. After replacement with 25 μl D-PBS, stimulation was performed in the FLIPR instrument and at room temperature by the addition of 25 μl D-PBS supplemented with different stimuli at concentrations corresponding to twice the desired final level. Receptor activity was quantified by determining the maximal fluorescence increases (using a 480 nm excitation and 535 nm emission) after normalization to basal fluorescence intensity measured before stimulation.
For dose-responses analysis, stimuli were presented in duplicates at 10 different concentrations ranging from 60 nM to 30 μM. Activities were normalized to the response obtained with 400 mM D-fructose, a concentration that elicits maximum receptor response. EC50s were determined using a non-linear regression algorithm (using a Senomyx, Inc. software), where the Hill slope, bottom asymptotes and top asymptotes were allow to vary. Identical results were obtained when analyzing the dose-response data using commercially available software for non-linear regression analysis such as GraphPad PRISM (San Diego, Calif.).

[1] abbreviates: read-out: EC50 for activation of a hT1R2/hT1R3 sweet receptor expressed in HEK293 cell line.

In the case of `CC(C)CNC(=O)C(C)(C)c1ccc(-c2ccccc2C=O)cc1` [Compound 37, 2-(2′-formylbiphenyl-4-yl)-N-isobutyl-2-methylpropanamide], the pEC50 under setting [1] is 6.09.

As to `CC(C)CNC(=O)C(C)(C)c1ccc(-c2cncc(C#N)c2)nc1` [Compound 40, 2-(5′-cyano-2,3′-bipyridin-5-yl)-N-isobutyl-2-methylpropanamide], under setting [1], the pEC50 was 5.66.

As to `CC(C)CNC(=O)C(C)(C)c1nc(-c2ccccc2)no1` [Compound 41, N-isobutyl-2-methyl-2-(3-phenyl-1,2,4-oxadiazol-5-yl)propanamide], under setting [1], the pEC50 is 5.19.

As for `CC(C)CNC(=O)C(C)(C)c1ccc(-c2cncc(C#N)c2)cn1` [Compound 42, 2-(5′-cyano-3,3′-bipyridin-6-yl)-N-isobutyl-2-methylpropanamide], the pEC50 under setting [1] is 4.97.

In the case of `CC(C)[C@@H](C)NC(=O)C(C)(C)c1ccc(-c2cncnc2)cc1` [Compound 44, (R)-2-methyl-N-(3-methylbutan-2-yl)-2-(4-(pyrimidin-5-yl)phenyl)propanamide], the pEC50 under setting [1] is 6.19.

As for `COC(C)CNC(=O)C(C)(C)c1ccc(-c2cncc(C#N)n2)cc1` (stereo not shown) [Compound 45, 2-(4-(6-cyanopyrazin-2-yl)phenyl)-N-(2-methoxypropyl)-2-methylpropanamide], the pEC50 under setting [1] is 6.04.

On to `CC(C)(C(=O)NCC(O)c1ccco1)c1ccc(-c2cncc(C#N)c2)cc1` (stereo not shown) [Compound 46, 2-(4-(5-cyanopyridin-3-yl)phenyl)-N-(2-(furan-2-yl)-2-hydroxyethyl)-2-methylpropanamide], for which the pEC50 under setting [1] was 5.92.

For the compound `CC[C@@H](C)NC(=O)C(C)(C)c1ccc(-c2cncc(C#N)n2)cc1` [Compound 47, (R)-N-sec-butyl-2-(4-(6-cyanopyrazin-2-yl)phenyl)-2-methylpropanamide], under setting [1], the pEC50 was 6.85.

Regarding `CC(NC(=O)C(C)(C)c1ccc(-c2cncc(C#N)n2)cc1)c1ccco1` (stereo not shown) [Compound 48, 2-(4-(6-cyanopyrazin-2-yl)phenyl)-N-(1-(furan-2-yl)ethyl)-2-methylpropanamide], the pEC50 under setting [1] is 6.72.

Regarding `CC(C)(C(=O)NCc1ccco1)c1ccc(-c2cncc(C#N)n2)cc1` [Compound 49, 2-(4-(6-cyanopyrazin-2-yl)phenyl)-N-(furan-2-ylmethyl)-2-methylpropanamide], under setting [1], the pEC50 is 6.33.

`Cc1cc(C(C)(C)C(=O)NCC(C)C)ccc1-c1ccccc1` [Compound 50, N-isobutyl-2-methyl-2-(2-methylbiphenyl-4-yl)propanamide]: under setting [1], the pEC50 was 5.85.

For `CC[C@@H](CO)NC(=O)C(C)(C)c1ccc(-c2cncc(C#N)n2)cc1` [Compound 51, (S)-2-(4-(6-cyanopyrazin-2-yl)phenyl)-N-(1-hydroxybutan-2-yl)-2-methylpropanamide], the pEC50 under setting [1] was 5.99.

In the case of `CCC(CC)NC(=O)C(C)(C)c1ccc(-c2cncnc2)cc1` [Compound 52, 2-methyl-N-(pentan-3-yl)-2-(4-(pyrimidin-5-yl)phenyl)propanamide], the pEC50 under setting [1] is 6.42.

Turning to `CC(C(=O)NC1CC1)c1ccc(-c2ccccc2)c(F)c1` (stereo not shown) [Compound A1], the pEC50 (Table A, read-out: SWEET EC50) was 5.45.

`CCC(C)NC(=O)[C@@H](C)c1ccc(-c2ccccc2)c(F)c1` (stereo partly shown) [Compound A2]: the pEC50 (Table A, read-out: SWEET EC50) was 5.62.

In the case of `CC(C)CNC(=O)C(C)(C)c1ccc(-c2ccccc2)c(F)c1` [Compound A3], the pEC50 (Table A, read-out: SWEET EC50) is 5.77.

As to `COCC(C)NC(=O)C(C)(C)c1ccc(-c2ccccc2)c(F)c1` (stereo not shown) [Compound A4], where the note is “Table A, read-out: SWEET EC50”, the pEC50 is 5.50.

As to `CC(C)CNC(=O)C(C)c1ccc(-c2ccccc2)cc1` (stereo not shown) [Compound A5], the pEC50 (Table A, read-out: SWEET EC50) was 5.37.

As for `CC(C)CNC(=O)C(C)c1ccc(-c2cccc(F)c2)cc1` (stereo not shown) [Compound A6], under “Table A, read-out: SWEET EC50”, the pEC50 was 5.74.

For the compound `COc1cccc(-c2ccc(C(C)C(=O)NCC(C)C)cc2)c1` (stereo not shown) [Compound A7], the pEC50 (Table A, read-out: SWEET EC50) is 5.25.

`CC(C)CNC(=O)Cc1ccc(-c2ccccc2)c(F)c1` [Compound A8]: the pEC50 (Table A, read-out: SWEET EC50) is 5.12.

With `CC(C)CNC(=O)C(C)(C)c1ccc(-c2ccncc2)cc1` [Compound A9], the pEC50 (Table A, read-out: SWEET EC50) is 5.78.

Take `CC(C)CNC(=O)C(C)(C)c1ccc(-c2ccc3[nH]ccc3c2)cc1` [Compound A10]: the pEC50 (Table A, read-out: SWEET EC50) is 5.47.

For the compound `CC(C)CNC(=O)C(C)(C)c1ccc(-c2cncnc2)cc1` [Compound A11], the pEC50 (Table A, read-out: SWEET EC50) was 5.67.

For the compound `CCC(COC)NC(=O)C(C)c1ccc(-c2ccccc2)c(F)c1` (stereo not shown) [Compound A12], under “Table A, read-out: SWEET EC50”, the pEC50 was 5.35.

For the compound `CCc1ccccc1-c1ccc(C(C)(C)C(=O)NCC(C)C)cc1` [Compound A13], the pEC50 (Table A, read-out: SWEET EC50) was 5.15.

With `CSc1ccccc1-c1ccc(C(C)(C)C(=O)NCC(C)C)cc1` [Compound A14], the pEC50 (Table A, read-out: SWEET EC50) was 5.05.

Consider `COC(=O)c1ccccc1-c1ccc(C(C)(C)C(=O)NCC(C)C)cc1` [Compound A15], for which the pEC50 (Table A, read-out: SWEET EC50) was 5.40.

For `CC(C)CNC(=O)C(C)(C)c1ccc(-c2cccc(C(C)C)c2)cc1` [Compound A16], the pEC50 (Table A, read-out: SWEET EC50) was 5.22.

Turning to `CCCOc1cccc(-c2ccc(C(C)(C)C(=O)NCC(C)C)cc2)c1` [Compound A17], where the note is “Table A, read-out: SWEET EC50”, the pEC50 was 5.25.

With `COc1cccc(-c2ccc(C(C)(C)C(=O)NCC(C)C)cc2)c1OC` [Compound A18], the pEC50 (Table A, read-out: SWEET EC50) was 5.18.

Take `COc1ccc(-c2ccc(C(C)(C)C(=O)NCC(C)C)cc2)c(OC)c1` [Compound A19]: the pEC50 (Table A, read-out: SWEET EC50) was 5.15.

As for `CC(NC(=O)C(C)(C)c1ccc(-c2cncc(C#N)c2)cc1)c1ccccc1` (stereo not shown) [Compound A20], under “Table A, read-out: SWEET EC50”, the pEC50 was 6.15.

In the case of `CC(C)CCNC(=O)C(C)(C)c1ccc(-c2cncc(C#N)c2)cc1` [Compound A21], for the setting “Table A, read-out: SWEET EC50”, the pEC50 is 6.03.

Turning to `CC(C)NC(=O)C(C)(C)c1ccc(-c2cncc(C#N)c2)cc1` [Compound A22], the pEC50 (Table A, read-out: SWEET EC50) is 6.03.

In the case of `COCOCc1c(C=O)cccc1-c1ccc(C(C)(C)C(=O)NCC(C)C)cc1` [Compound A23], the pEC50 (Table A, read-out: SWEET EC50) is 5.96.

As to `CC(=O)c1ccccc1-c1ccc(C(C)(C)C(=O)NCC(C)C)cc1` [Compound A24], the pEC50 (Table A, read-out: SWEET EC50) is 5.93.
